Patent US20230399368A1, “CARRIER PEPTIDE FRAGMENT AND USE THEREOF” (TOAGOSEI CO., LTD., priority 2020, published 2023)
Entries after “also recorded” stand apart in the source; their conditions may differ. FAM = fluorescent dye FAM

Test system: HeLa cells
Test: Evaluation of the cell membrane permeability by flow cytometry (FAM fluorescence) in HeLa cell culture
Assay type: cell-based, human
Details: for MFI (mean fluorescent intensity): 10 μM in culture medium, 0.5% DMSO, 20 hours incubation at 37° C., detector FL2, mean value of triplicate; for introduction of the fluorescent dye (FAM) into the cytoplasm, shift of the flow cytometry histogram on the X-axis (FIG. 1): compared with Example 3 (only FAM) or Example 2
Procedure: The cell membrane permeability of sample 1 and sample 2 was evaluated using HeLa cells (an established cell line derived from human cervical cancer cells) as the eukaryotic cells.
HeLa cells were cultured on DMEM (Dulbecco's modified Eagle's medium (Cat. No. 043-30085, from FUJIFILM Wako Pure Chemical Corporation)) containing 10% FBS (fetal bovine serum), which is a general culture medium.
The HeLa cells attached to the culture plate were washed with PBS, a 0.25% trypsin/EDTA solution was then added, and incubation was carried out for 3 minutes at 37° C. After this incubation, the aforementioned DMEM containing 10% FBS was added and the trypsin was inactivated, and the cells were then sedimented by carrying out centrifugal separation for 5 minutes at 150×g. The supernatant produced by the centrifugal separation was removed, and the aforementioned DMEM containing 10% FBS was added to the sediment (cell pellet) to prepare a cell suspension containing approximately 1×10^5 cells/mL. The cells were seeded (approximately 2×10^5 cells/well) by the addition of 2 mL of this cell suspension to the wells of a commercial 6-well plate (Iwaki). The cells were attached to the well bottom by culture for 3 hours at 37° C. under the condition of 5% CO2. In order to perform the evaluation of the cell membrane permeability in triplicate, the cells were seeded to three wells for the test of Example 1 and the following procedure was performed on each well.
The 2 mM sample solution 1 was then diluted with the aforementioned DMEM containing 10% FBS to prepare a sample solution 1 in which the sample 1 concentration was 20 μM. After the aforementioned 3-hour culture, 1 mL of the culture supernatant was removed from the well, followed by the addition to the well of 1 mL of the 20 μM sample solution 1 (i.e., the concentration of sample 1 in the culture medium in the well was brought to 10 μM and the DMSO concentration was brought to 0.5%). The cells were incubated for 20 hours at 37° C. under the condition of 5% CO2. After this 20-hour incubation, the culture supernatant was removed from the well and the cells in the well were washed twice with 1 mL PBS. 200 μL of a 0.25% trypsin/EDTA solution was then added to the well and incubation was carried out for 3 minutes at 37° C. After this incubation, the trypsin was inactivated by the addition of 400 μL of the aforementioned DMEM containing 10% FBS to the well, and the cells were subsequently recovered by transferring the cell suspension in the well to a tube. The well was then washed by the further addition of 600 μL PBS to the well. The cells that had remained in the well were recovered to the tube by transferring the PBS in the well to the tube. Centrifugal separation was run on this tube for 5 minutes using conditions of 4° C. and 210×g. After the centrifugal separation, the supernatant was removed, the sediment (cell pellet) was suspended (washed) with 1 mL of PBS, and centrifugal separation was carried out using the same conditions as before. After this procedure had been performed twice, the supernatant was removed to obtain cells (cell pellet) that had been cultured on a sample 1-containing culture medium.
The cell membrane permeability of sample 1 was evaluated using the resulting cells (cell pellet) and a flow cytometer. An On-Chip Flow Cytometer (On-chip Biotechnologies Co., Ltd.) was used for the flow cytometer.
For this analysis, the cell pellet obtained as described above was suspended in 50 μL PBS. To this suspension was added 50 μL of Sample Buffer 2× for use with the indicated flow cytometer to prepare a cell suspension for submission to analysis.
Gating was performed using this flow cytometer based on forward scatter (FSC) and side scatter (SSC); the gating was set for the cell population that was the target of the analysis; and the fluorescent intensity was measured for the cell population within this gating. The analysis was performed so this cell population reached at least 5,000 or more. […]

Substance | MFI (mean fluorescent intensity) | introduction of the fluorescent dye (FAM) into the cytoplasm, shift of the flow cytometry histogram on the X-axis (FIG. 1) (10 μM, 20 hours incubation) | efficiency (cell membrane permeability) compared using the MFI, Example 1 versus Example 2 (10 μM, 20 hours incubation, ratio of MFI of Table 3)
5(6)-carboxyfluorescein [Example 3, reference compound] | 6 |  | 
FAM-MAPRGFSCLLLLTSEIDLPVKRRA-COOH ({FAM}-MAPRGFSCLLLLTSEIDLPVKRRA-OH; listed as Homo sapiens) [Example 1] | 33.7 | more efficiently introduced; also recorded: shifted more to the right on the X-axis than was the histogram for Example 2 | approximately twice as high
FAM-KKRTLRKNDRKKR-CONH2 ({FAM}-KKRTLRKNDRKKR-NH2) [Example 2, reference compound] | 15.5 | more efficiently introduced | 
